Measurements reported in ChEMBL document CHEMBL1140714, “In search of novel agents for therapy of tropical diseases and human immunodeficiency virus” (J Med Chem, 2008).
The source made the active and inactive calls. The calls are words filed in the database; no cut-off is given here.

Key:
[1] = test system: Staphylococcus aureus; assay: Antibacterial activity against Staphylococcus aureus assessed as inhibition of biofilm formation; type: functional, organism-based
[2] = test system: Plasmodium falciparum; assay: Antiplasmodial activity against Plasmodium falciparum NF54 after 72 hrs; type: functional, organism-based; details: NF54, 72 h
[3] = test system: Plasmodium falciparum; assay: Antiplasmodial activity against Plasmodium falciparum NF54 after 24 hrs; type: functional, organism-based; details: NF54, 24 h
[4] = test system: Leishmania major; assay: Antileishmanial activity against Leishmania major MHOM/IL/81/FE/BNI infected in BALB/c mouse; type: functional
[5] = Cytotoxicity against mouse J774.1 cells after 48 hrs; type: cell-based; details: read-out: ED50
[6] = test system: Plasmodium falciparum; assay: Inhibition of parasitemia in chloroquine-sensitive Plasmodium falciparum NF54 infected C57BL/6 mice (Mus musculus) after 1 day at 40 uM; type: functional; set-up: scale not given: the % may be the effect or the level left
[7] = test system: Plasmodium falciparum; assay: Inhibition of parasitemia in chloroquine-sensitive Plasmodium falciparum NF54 infected C57BL/6 mice (Mus musculus) after 2 days at 20 uM; type: functional; set-up: scale not given: the % may be the effect or the level left
[8] = test system: Mus musculus; assay: Increase in survival of chloroquine-sensitive Plasmodium falciparum NF54 infected intravenously dosed C57BL/6 mice (Mus musculus); type: functional, organism-based
[9] = test system: Plasmodium falciparum; assay: Antiplasmodial activity against Plasmodium falciparum NF54 infected mice (Mus musculus) after 72 hrs; type: functional, organism-based; details: NF54, 72 h
[10] = test system: Trypanosoma brucei brucei; assay: Antitrypanosomal activity against Trypanosoma brucei brucei TC221; type: functional; details: read-out: ED50 (the source's name)
[11] = test system: Plasmodium falciparum; assay: Inhibition of parasitemia in chloroquine-sensitive Plasmodium falciparum NF54 infected C57BL/6 mice (Mus musculus) after 4 days; type: functional; set-up: scale not given: the % may be the effect or the level left
[12] = test system: Mus musculus; assay: Increase in survival of chloroquine-sensitive Plasmodium falciparum NF54 infected perorally dosed C57BL/6 mice (Mus musculus); type: functional, organism-based
[13] = test system: Human immunodeficiency virus 1; assay: Antiviral activity against HIV1 BaL replication in PM1 cells at 5 uM; type: functional, organism-based
[14] = test system: Human immunodeficiency virus 1; assay: Antiviral activity against HIV1 NL4/3 replication in PM1 cells at 6 uM; type: functional, organism-based

SMILES: COC(=O)C1C(=O)C(C(=O)OC)[C@H](c2ccccn2)N(Cc2ccccc2)[C@@H]1c1ccccn1 (stereo partly specified)
- Activity [1]: inactive
- IC50 [2]: 10.9 µM
- IC50 [3]: 10.2 µM
- ED50 [4]: 55.99 µM
- CC50 at 48 h [5]: 34 µM
- Activity [6]: 0%
- Activity [7]: 0%
- Activity [8]: Active

SMILES: C=CCN1[C@H](c2ccc([N+](=O)[O-])cc2)C(C(=O)OCC)C(=O)C(C(=O)OCC)[C@@H]1c1ccc([N+](=O)[O-])cc1 (stereo partly specified)
- Activity [1]: inactive
- IC50 [9]: 11 µM
- EC50 [10]: 3.06 µM
- CC50 at 48 h [5]: > 100 µM
- Activity [11]: 0%
- Activity [12]: Active
- Activity [13]: Active
- Activity [14]: Active
